Biological target: T1, human LXRβ (AA 153-461) LBD (Homo sapiens, UniProt P55055)
T1 construct: pM human LXRβ (AA 153-461) LBD plasmid; expressed in transfected cells; host or cells: HEK 293
T1 sequence (P55055 153-460 limits assumed): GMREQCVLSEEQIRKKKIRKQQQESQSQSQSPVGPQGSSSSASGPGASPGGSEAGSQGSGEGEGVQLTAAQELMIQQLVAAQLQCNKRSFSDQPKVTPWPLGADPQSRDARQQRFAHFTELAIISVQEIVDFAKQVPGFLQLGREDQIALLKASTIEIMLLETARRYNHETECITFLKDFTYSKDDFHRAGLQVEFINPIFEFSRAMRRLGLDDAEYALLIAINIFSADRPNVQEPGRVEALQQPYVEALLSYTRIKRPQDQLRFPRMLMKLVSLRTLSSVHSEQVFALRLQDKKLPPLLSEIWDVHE
Experiment: Gal4 LXRβ cotransfection assay (LXRβ Gal fusion assay)
Format: cell-based
Settings: HEK 293 cells, Gal4-responsive luciferase reporter, compounds 0.01-10 μM
Method: For transient transfection of HEK 293 cells, 6×10^3 cells were plated into 96-well dishes. Each well was transfected with 25 ng 5×UAS-luciferase reporter (pG5luc) and 25 ng of pM human LXRβ (AA 153-461) LBD plasmid using Fugene 6 reagent (Roche; Indianapolis, Ind.). The chimeric protein was assessed for the ability to transactivate a Gal4-responsive luciferase reporter plasmid in a concentration-responsive manner to compounds (0.01-10 μM). Luciferase activity at each dose concentration was measured in triplicate using standard substrate reagents (BD Biosciences; San Diego, Calif.). Data are expressed as relative light units and are shown below in Table 1.

Compared with `COC(=O)c1cc(-c2nnc(-c3cccc(S(C)(=O)=O)c3)s2)n(-c2ccccc2Cl)n1` [Compound 9, methyl 1-(2-chlorophenyl)-5-(5-(3-(methylsulfonyl)phenyl)-1,3,4-thiadiazol-2-yl)-1H-pyrazole-3-carboxylate], `CS(=O)(=O)c1cccc(-c2nnc(-c3cc(C(=O)O)nn3-c3ccccc3Cl)s2)c1` [Compound 10, 1-(2-chlorophenyl)-5-(5-(3-(methylsulfonyl)phenyl)-1,3,4-thiadiazol-2-yl)-1H-pyrazole-3-carboxylic acid] is higher in EC50: 1000 to 10000 nM for the first, over 10000 nM for the second.

Compared with `COC(=O)c1cc(-c2nnc(-c3cccc(S(C)(=O)=O)c3)o2)n(-c2ccccc2Cl)n1` [Compound 11, methyl 1-(2-chlorophenyl)-5-(5-(3-(methylsulfonyl)phenyl)-1,3,4-oxadiazol-2-yl)-1H-pyrazole-3-carboxylate], `CS(=O)(=O)c1cccc(-c2nnc(-c3cc(C(=O)O)nn3-c3ccccc3Cl)o2)c1` [Compound 12, 1-(2-chlorophenyl)-5-(5-(3-(methylsulfonyl)phenyl)-1,3,4-oxadiazol-2-yl)-1H-pyrazole-3-carboxylic acid] is higher in EC50: under 1000 nM for the first, over 10000 nM for the second.

`CCOC(=O)Cn1nc(C(F)(F)F)cc1-c1ccc(-c2cccc(S(C)(=O)=O)c2)s1` [Compound 16, ethyl 2-(5-(5-(3-(methylsulfonyl)phenyl)thiophen-2-yl)-3-(trifluoromethyl)-1H-pyrazol-1-yl)acetate] and `CS(=O)(=O)c1cccc(-c2ccc(-c3cc(C(F)(F)F)nn3CC(=O)OCCl)s2)c1` [Compound 52, chloromethyl 2-(5-(5-(3-(methylsulfonyl)phenyl)thiophen-2-yl)-3-(trifluoromethyl)-1H-pyrazol-1-yl)acetate] cannot be ordered by EC50: under 1000 nM for the first, under 1000 nM for the second.

First: COC(=O)Cn1nc(C(F)(F)F)cc1-c1ccc(-c2cccc(S(C)(=O)=O)c2)s1 [Compound 18, methyl 2-(5-(5-(3-(methylsulfonyl)phenyl)thiophen-2-yl)-3-(trifluoromethyl)-1H-pyrazol-1-yl)acetic acid]
Second: CC(C)OC(=O)Cn1nc(C(F)(F)F)cc1-c1ccc(-c2cccc(S(C)(=O)=O)c2)s1 [Compound 49]
The EC50 of the first is higher: over 10000 nM for the first, under 1000 nM for the second. The second is the more potent here.

Compared with `CCOC(=O)Cn1nc(C(F)(F)F)cc1-c1ccc(-c2cccc(S(C)(=O)=O)c2)cc1` [Compound 36, ethyl 2-(5-(3′-(methylsulfonyl)-[1,1′-biphenyl]-4-yl)-3-(trifluoromethyl)-1H-pyrazol-1-yl)acetate], `CSCOC(=O)Cn1nc(C(F)(F)F)cc1-c1ccc(-c2cccc(S(C)(=O)=O)c2)cc1` [Compound 41, methylthiomethyl 2-(5-(3′-(methylsulfonyl)biphenyl-4-yl)-3-(trifluoromethyl)-1H-pyrazol-1-yl)acetate] is higher in EC50: under 1000 nM for the first, 1000 to 10000 nM for the second. The first is the more potent here.

First: CS(=O)(=O)c1cccc(-c2ccc(-c3cc(C(F)(F)F)nn3CC(=O)O)cc2)c1 [Compound 38, 2-(5-(3′-(methylsulfonyl)-[1,1′-biphenyl]-4-yl)-3-(trifluoromethyl)-1H-pyrazol-1-yl)acetic acid]
Second: CCOC(=O)Cn1nc(C(F)(F)F)cc1-c1ccc(-c2ccc(CO)c(S(C)(=O)=O)c2)cc1 [Compound 51, ethyl 2-(5-(4′-(hydroxymethyl)-3′-(methylsulfonyl)biphenyl-4-yl)-3-(trifluoromethyl)-1H-pyrazol-1-yl)acetate]
The EC50 of the first is higher: over 10000 nM for the first, under 1000 nM for the second.

`CCOC(=O)Cn1nc(C(F)(F)F)cc1-c1ccc(-c2ccc(CO)c(S(C)(=O)=O)c2)s1` [Compound 50, ethyl 2-(5-(5-(4-(hydroxymethyl)-3-(methylsulfonyl)phenyl)thiophen-2-yl)-3-(trifluoromethyl)-1H-pyrazol-1-yl)acetate] was tested, and the EC50 was under 1000 nM.

Source: patent publication US9637481B2 (RALEXAR THERAPEUTICS, INC., priority 2012, dated 2017)
